Test results: patent US10131663B2, “Chemical compounds” (AstraZeneca AB, priority 2016, dated 2018)
≈ marks a conversion by molar mass, not a printed value.

Experiments:
[1] = log D (shake flask, 1-octanol/aqueous buffer); type: physicochemical
From the text: The lipophilicity of a drug is an important physical property which may influence many biological and metabolic properties of a compound, for example the absorption, distribution, metabolism, excretion and toxicity profiles of a compound. The distribution coefficient between 1-octanol and aqueous buffer, Log DO/W, at pH 7.4, is the most commonly used measurement of the lipophilicity of a compound. The current method for measurement of Log DO/W is based on the traditional shake flask technique, but with the modification of measuring compounds in mixtures of ten at a time using UPLC with quantitative mass spectrometry (MS) as a method to measure the relative octanol and aqueous concentrations. […] An additional QC sample Caffeine, with low Log D, are used and randomly placed in all runs. The method has been thoroughly validated against the previous shake flask methodologies.

[2] = Thermodynamic solubility (shake-flask); type: physicochemical; details: aqueous phosphate buffer pH 7.4, 24 hours
Method: The thermodynamic solubility of a research compound is measured under standard conditions. It is a shake-flask approach that uses 10 mM DMSO solutions which are supplied from the Compound Managements liquid store and is a high throughput method. The dried compounds are equilibrated in an aqueous phosphate buffer (pH 7.4) for 24 hours at 25° C., the portion with the dissolved compound is then separated from the remains. The solutions are analyzed and quantified using UPLC/MS/MS, QC-samples are incorporated in each assay-run to ensure the quality of the assay.

[3] = Human plasma protein binding (equilibrium dialysis); type: in vitro ADME; details: dialysis 18 hours
Method: The automated equilibrium dialysis assay in human plasma uses the RED (Rapid Equilibrium Dialysis) Device and sample handling. The assay generally runs over two to three days including delivery of results. After dialysis for 18 hours, plasma and buffer samples are prepared for analysis by liquid chromatography and mass spectrometry. Samples are generally tested in singlicates and quantified by LC/MSMS by using a 7-point calibration curve in plasma. The compounds are pooled together in plasma pools up to 10 compounds. Three reference compounds are used in each run, Propranolol, Metoprolol and Warfarin. Warfarin is used as a control in each pool and Propranolol and Metoprolol are placed randomly in each run. An in-house Excel macro is used for preparation of files for the robot and the mass spectrometer and is also used for the calculations of fraction unbound (fu %) in plasma.

[4] = molecular target: recombinant human Estrogen Receptor alpha ligand binding domain (ER alpha-LBD (GST)) (Homo sapiens (Human), UniProt P03372); experiment: ERα binding assay (LanthaScreen TR-FRET competition); details: TR-FRET, displacement of Fluormone ES2
Chain of recombinant human Estrogen Receptor alpha ligand binding domain (ER alpha-LBD (GST)) (P03372 307-554): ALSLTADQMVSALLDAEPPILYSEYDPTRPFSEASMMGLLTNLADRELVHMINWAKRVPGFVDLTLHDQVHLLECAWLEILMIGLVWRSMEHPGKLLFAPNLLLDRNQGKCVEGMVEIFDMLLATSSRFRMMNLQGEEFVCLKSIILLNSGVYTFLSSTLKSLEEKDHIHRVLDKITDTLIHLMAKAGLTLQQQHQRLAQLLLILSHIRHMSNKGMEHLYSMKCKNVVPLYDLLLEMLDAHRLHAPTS
Method: The ability of compounds to bind to isolated Estrogen Receptor Alpha Ligand binding domain (ER alpha-LBD (GST)) was assessed in competition assays using a LanthaScreen™ Time-Resolved Fluorescence Resonance Energy Transfer (TR-FRET) detection end-point. […] The assay principle is that ER alpha-LBD (GST) is added to a fluorescent ligand to form a receptor/fluorophore complex. A terbium-labelled anti-GST antibody (Product code PV3551) is used to indirectly label the receptor by binding to its GST tag, and competitive binding is detected by a test compound's ability to displace the fluorescent ligand, resulting in a loss of TR-FRET signal between the Tb-anti-GST antibody and the tracer. The assay was performed as follows with all reagent additions carried out using the Beckman Coulter BioRAPTR FRD microfluidic workstation: • 1. Acoustic dispense 120 nL of the test compound into a black low volume 384 well assay plates. • 2. Prepare 1×ER alpha-LBD/Tb-antiGST Ab in ES2 screening buffer and incubate for 15 minutes. • 3. Dispense 6 μL of the 1×[…]/Tb-anti-GST Ab reagent into each well of the assay plate followed by 6 μL of Fluorophore reagent into each well of the assay plate • 4. Cover the assay plate to protect the reagents from light and evaporation, and incubate at room temperature for 4 hours. • 5.
TR-FRET dose response data obtained with each compound was exported into a suitable software package (such as Origin or Genedata) to perform curve fitting analysis. Competitive ER alpha binding was expressed as an IC50 value.

[5] = molecular target: Estrogen Receptor (ERα) in MCF-7 cells (Homo sapiens (Human), UniProt P03372); experiment: MCF-7 ER down-regulation assay (immuno-fluorescence); type: cell-based
Chain of Estrogen Receptor (ERα) in MCF-7 cells (P03372 whole entry): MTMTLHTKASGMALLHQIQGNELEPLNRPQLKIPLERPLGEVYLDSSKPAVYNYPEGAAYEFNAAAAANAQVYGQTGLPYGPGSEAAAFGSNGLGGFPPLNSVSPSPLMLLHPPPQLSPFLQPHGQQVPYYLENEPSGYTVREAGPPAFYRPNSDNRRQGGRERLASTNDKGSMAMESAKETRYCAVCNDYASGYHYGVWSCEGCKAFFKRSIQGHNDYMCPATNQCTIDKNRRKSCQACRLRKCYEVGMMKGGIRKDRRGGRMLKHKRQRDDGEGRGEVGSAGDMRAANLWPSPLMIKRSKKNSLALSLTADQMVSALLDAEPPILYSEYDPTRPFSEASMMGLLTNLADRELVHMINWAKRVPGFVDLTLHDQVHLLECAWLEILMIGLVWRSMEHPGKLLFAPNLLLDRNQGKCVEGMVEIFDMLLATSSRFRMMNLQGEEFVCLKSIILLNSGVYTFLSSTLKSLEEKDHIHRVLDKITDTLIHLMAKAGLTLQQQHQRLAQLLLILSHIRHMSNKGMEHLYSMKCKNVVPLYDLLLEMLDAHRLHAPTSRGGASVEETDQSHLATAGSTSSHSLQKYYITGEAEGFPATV
Method: The Echo uses acoustic technology to perform direct microplate-to-microplate transfers of DMSO compound solutions to assay plates. […] Cells were fixed at room temperature for 20 mins before being washed two times with 250 μL PBS/Proclin (PBS with a Biocide preservative) using a BioTek platewasher, 40 μL of PBS/Proclin was then added to all wells and the plates stored at 4° C. The fixing method described above was carried out on the Integrated Echo 2 workcell. Immunostaining was performed using an automated AutoElisa workcell. […] The plates were incubated overnight at 4° C. […] The mean total intensity was normalized for cell number giving the total intensity per cell. The data was exported into a suitable software package (such as Origin) to perform curve fitting analysis.

[6] = pH 7.4, 1-octanol/aqueous buffer
[7] = 1-octanol/aqueous buffer, pH 7.4, pH 7.4, 1-octanol/aqueous buffer
[8] = aqueous phosphate buffer, 25 °C, pH 7.4, aqueous buffer, thermodynamic from solid

Structure (SMILES) | Human plasma protein binding (% free) [3] [% free] | logD [1, 7] | solubility at 24 h [2, 8] [µM] | logD [1, 6] | further results
COC[C@](C)(F)CN1[C@H](c2ccc(NC3CN(CCCF)C3)cc2OC)c2ccc3[nH]ncc3c2C[C@H]1C (single isomer, unassigned) [Example 15] | 34 | – | – | – | LogD pH 7.4 [1, 6]: 2.5; solubility at 24 h ([2]; 25° C.): 821 µM (≈ 433 µg/mL)
COCC(C)(F)CN1[C@H](c2ccc(NC3CN(CCCF)C3)cc2OC)c2ccc3[nH]ncc3c2C[C@H]1C (stereo partly drawn) [Example 4, N-(4-((6S,8R)-7-(2-fluoro-3-methoxy-2-methylpropyl)-8-methyl-6,7,8,9-tetrahydro-3H-pyrazolo[4,3-f]isoquinolin-6-yl)-3-methoxyphenyl)-1-(3-fluoropropyl)azetidin-3-amine] | 21 | 2.7 | 991 (≈ 523 µg/mL) | – | –
C[C@@H]1Cc2c(ccc3[nH]ncc23)[C@@H](c2ncc(NC3CN(CCCF)C3)cc2F)N1CC(F)(F)CF [Example 71, 5-fluoro-N-(1-(3-fluoropropyl)azetidin-3-yl)-6-((6S,8R)-8-methyl-7-(2,2,3-trifluoropropyl)-6,7,8,9-tetrahydro-3H-pyrazolo[4,3-f]isoquinolin-6-yl)pyridin-3-amine] | – | – | 666 (≈ 339 µg/mL) | 3.2 | –
C[C@@H]1Cc2c(ccc3[nH]ncc23)[C@@H](c2ccc(NC3CN(CCCF)C3)nc2)N1CC1(F)CC1 [Example 54, 5-((6S,8R)-7-((1-fluorocyclopropyl)methyl)-8-methyl-6,7,8,9-tetrahydro-3H-pyrazolo[4,3-f]isoquinolin-6-yl)-N-(1-(3-fluoropropyl)azetidin-3-yl)pyridin-2-amine] | 57 | 1.4 | > 1000 | – | –
C[C@@H]1Cc2c(ccc3[nH]ncc23)[C@@H](c2ccc(NC3CN(CCCF)C3)cn2)N1CC(C)(F)F [Example 70, 6-((6S,8R)-7-(2,2-difluoropropyl)-8-methyl-6,7,8,9-tetrahydro-3H-pyrazolo[4,3-f]isoquinolin-6-yl)-N-(1-(3-fluoropropyl)azetidin-3-yl)pyridin-3-amine] | 24 | – | 857 (≈ 405 µg/mL) | 2.9 | –
CC(F)CN1[C@H](c2ccc(NC3CN(CCCF)C3)cn2)c2ccc3[nH]ncc3c2C[C@H]1C (single isomer, unassigned) [Example 65] | – | 2.4 | 790 (≈ 359 µg/mL) | – | –
C[C@@H]1Cc2c(ccc3[nH]ncc23)[C@@](C)(c2ccc(NC3CN(CCCF)C3)cn2)N1CC(F)F [Example 44, 6-((6S,8R)-7-(2,2-difluoroethyl)-6,8-dimethyl-6,7,8,9-tetrahydro-3H-pyrazolo[4,3-f]isoquinolin-6-yl)-N-(1-(3-fluoropropyl)azetidin-3-yl)pyridin-3-amine] | 10 | – | 998 (≈ 472 µg/mL) | 3.2 | IC50 [4]: 9.6 nM; IC50 [5]: 0.91 nM
COc1cc(NC2CN(CCCF)C2)cnc1[C@@H]1c2ccc3[nH]ncc3c2C[C@@H](C)N1CC(F)(F)F [Example 37, N-(1-(3-fluoropropyl)azetidin-3-yl)-5-methoxy-6-((6S,8R)-8-methyl-7-(2,2,2-trifluoroethyl)-6,7,8,9-tetrahydro-3H-pyrazolo[4,3-f]isoquinolin-6-yl)pyridin-3-amine] | 25 | 2.6 | 961 (≈ 487 µg/mL) | – | –
COC[C@](C)(F)CN1[C@H](c2ccc(OC3CN(CCCF)C3)cc2OC)c2ccc3[nH]ncc3c2C[C@H]1C (single isomer, unassigned) [Example 12] | 2.7 | 3.9 | 77 (≈ 40.7 µg/mL) | – | –
COc1cc(NC2CN(CCCF)C2)ccc1[C@@H]1c2ccc3[nH]ncc3c2C[C@@H](C)N1CC(C)F (single isomer, unassigned) [Example 68] | 37 | – | – | – | LogD pH 7.4 [1, 6]: 2.4; solubility at 24 h ([2]; 25° C.): 561 µM (≈ 271 µg/mL)
CC1(C)Cc2c(ccc3[nH]ncc23)[C@@H](c2ccc(NC3CN(CCCF)C3)cn2)N1CC(F)(F)F [Example 72, (S)-6-(8,8-dimethyl-7-(2,2,2-trifluoroethyl)-6,7,8,9-tetrahydro-3H-pyrazolo[4,3-f]isoquinolin-6-yl)-N-(1-(3-fluoropropyl)azetidin-3-yl)pyridin-3-amine] | 14 | – | 738 (≈ 362 µg/mL) | 3.3 | –
C[C@@H]1Cc2c(ccc3[nH]ncc23)[C@@H](c2ccc(N(C)C3CN(CCCF)C3)cn2)N1CC(F)F [Example 43, 6-((6S,8R)-7-(2,2-difluoroethyl)-8-methyl-6,7,8,9-tetrahydro-3H-pyrazolo[4,3-f]isoquinolin-6-yl)-N-(1-(3-fluoropropyl)azetidin-3-yl)-N-methylpyridin-3-amine] | – | – | – | – | IC50 [4]: 4.1 nM; IC50 [5]: 0.25 nM
COC[C@](C)(F)CN1[C@H](c2ccc(NC3CN(CCCF)C3)cc2OC)c2ccc3[nH]ncc3c2C[C@H]1C (single isomer, unassigned) [Example 14] | 16 | 2.6 | 897 (≈ 473 µg/mL) | – | –
CC(F)CN1[C@H](c2ccc(NC3CN(CCCF)C3)cn2)c2ccc3[nH]ncc3c2C[C@H]1C (single isomer, unassigned) [Example 66] | – | – | – | – | LogD pH 7.4 [1, 6]: 2.3; solubility at 24 h ([2]; 25° C.): 931 µM (≈ 423 µg/mL)
COc1cc(NC2CN(CCCF)C2)ccc1[C@@H]1c2ccc3[nH]ncc3c2C[C@@H](C)N1CC(C)F (single isomer, unassigned) [Example 67] | 19 | 2.7 | 914 (≈ 442 µg/mL) | – | –
C[C@@H]1Cc2c(ccc3[nH]ncc23)[C@@H](c2c(F)cc(NC3CN(CCCF)C3)cc2F)N1CC(C)(F)CO (single isomer, unassigned) [Example 24] | – | – | – | – | IC50 [4]: 10 nM; DC50 ([5]; read-out: ER down regulation IC50 value): 0.21 nM
COC[C@](C)(F)CN1[C@H](c2ccc(OC3CN(CCCF)C3)cc2OC)c2ccc3[nH]ncc3c2C[C@H]1C (single isomer, unassigned) [Example 13] | 6.4 | – | – | – | LogD pH 7.4 [1, 6]: 4; solubility at 24 h ([2]; 25° C.): 78 µM (≈ 41.2 µg/mL)
C[C@@H]1Cc2c(ccc3[nH]ncc23)[C@@H](c2ccc(NC3CN(CCCF)C3)cn2)N1CC(C)(C)F [Example 63, 6-((6S,8R)-7-(2-fluoro-2-methylpropyl)-8-methyl-6,7,8,9-tetrahydro-3H-pyrazolo[4,3-f]isoquinolin-6-yl)-N-(1-(3-fluoropropyl)azetidin-3-yl)pyridin-3-amine] | 10 | – | 870 (≈ 408 µg/mL) | 3.2 | –
FCCCN1CC(Nc2ccc([C@@H]3c4ccc5[nH]ncc5c4C[C@@H](C(F)F)N3CC(F)F)nc2)C1 [Example 51, 6-((6S,8S)-7-(2,2-difluoroethyl)-8-(difluoromethyl)-6,7,8,9-tetrahydro-3H-pyrazolo[4,3-f]isoquinolin-6-yl)-N-(1-(3-fluoropropyl)azetidin-3-yl)pyridin-3-amine] | 28 | – | > 1000 | 2.7 | –
